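Briefly, cells in 96-well plates were exposed to five compound concentrations for 48 h, and endpoints were estimated by linear interpolation. The concentration for 50% growth inhibition is given as GI50.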 Active and inactive are the calls of the source. Rule as the data show it: active = GI50 up to about 1.1 µM and inactive = higher.
Assays:
Test in all cases: NCI anticancer screen, dose series, 48 h
A549 = system: A549
DMS-114 = system: DMS-114
HCC 2998 = system: HCC 2998
HL-60 = system: HL-60
IGROV-1 = system: IGROV-1
K562 = system: K562
KM12 = system: KM12
LOX IMVI = system: LOX IMVI
MOLT-4 = system: MOLT-4
NCI-H522 = system: NCI-H522
NCI/ADR-RES = system: NCI/ADR-RES
RPMI-8226 = system: RPMI-8226
SF-539 = system: SF-539
SK-MEL-2 = system: SK-MEL-2
UACC-257 = system: UACC-257
UACC-62 = system: UACC-62

Measured: GI50

O=[N+]([O-])c1cc2ncc(-c3ccccc3)c(O)c2cc1/C(Cl)=C/c1ccccc1
inactive: A549 10.1 µM | DMS-114 4.88 µM | HCC 2998 8.26 µM | HL-60 5.25 µM | IGROV-1 5.83 µM | K562 5.86 µM | KM12 9.12 µM | LOX IMVI 6.93 µM | MOLT-4 6.85 µM | NCI-H522 3.48 µM | NCI/ADR-RES 4.93 µM | RPMI-8226 2.39 µM | SF-539 11.6 µM | SK-MEL-2 32.6 µM | UACC-257 24.3 µM | UACC-62 6.97 µM

CC(=O)/C=C/c1c[nH]c(=O)[nH]c1=O
inactive: A549 305 µM | DMS-114 242 µM | HCC 2998 236 µM | HL-60 97.9 µM | IGROV-1 151 µM | K562 229 µM | KM12 187 µM | LOX IMVI 97.5 µM | MOLT-4 179 µM | NCI-H522 94.4 µM | NCI/ADR-RES 151 µM | RPMI-8226 129 µM | SF-539 214 µM | SK-MEL-2 197 µM | UACC-257 265 µM | UACC-62 236 µM

Cc1ccc(N(O)C(C)(C)C)cc1
inactive: A549 > 100 µM | DMS-114 > 100 µM | HCC 2998 > 100 µM | HL-60 > 78.3 µM | IGROV-1 > 100 µM | K562 > 100 µM | KM12 > 100 µM | LOX IMVI > 100 µM | MOLT-4 > 100 µM | NCI-H522 > 100 µM | NCI/ADR-RES > 100 µM | RPMI-8226 > 100 µM | SF-539 > 100 µM | SK-MEL-2 > 100 µM | UACC-257 > 100 µM | UACC-62 > 100 µM

Source: ChEMBL document CHEMBL1201862, “PubChem BioAssay data set” (2004)
